Measurements: paper PMC12497685, “Anticoronavirus Isoquinoline Alkaloids: Unraveling the Secrets of Their Structure–Activity Relationship” (Influenza and Other Respiratory Viruses, 2025)
Where two headings read alike, the source gives them in different places.

Tests used:
Type in all cases: cell-based
[1] = system: SARS‐CoV‐2 spike protein pseudotyped lentivirus, D614G variant; conditions: read-out: Pseudovirus assay, IC50, D614G
[2] = system: SARS‐CoV‐2 spike protein pseudotyped lentivirus, Delta variant; assay: organism not typed; conditions: read-out: Pseudovirus assay, IC50, Delta
[3] = system: SARS‐CoV‐2 spike protein pseudotyped lentivirus, Omicron variant; assay: organism not typed; conditions: read-out: Pseudovirus assay, IC50, Omicron
[4] = system: SARS‐CoV‐2 spike protein pseudotyped lentivirus, D614G, Delta, and Omicron variants; conditions: for IC50: read-out: Pseudovirus assay, IC50 values as a range over D614G, Delta, and Omicron variants

Molecule | IC50 [1] | IC50 ([2]; mean ± SEM (n = 3)) | IC50 ([3]; mean ± SEM (n = 3)) | IC50 [4] | IC50 ([2]; HEK-293T) | IC50 ([3]; HEK-293T) | IC50 ([1]; mean ± SEM (n = 3)) | activity in SARS‐CoV‐2 S‐protein and ACE2 binding (pseudovirus) assay (in words) [4]
(+)‐aromoline [Compound 16] | 0.67 ± 0.09 µM | 0.47 ± 0.08 µM | 0.86 ± 0.12 µM | 0.47 to 0.66 µM | – | – | – | –
COc1cc2c3cc1Oc1c(O)c(OC)cc4c1[C@@H](Cc1ccc(O)c(c1)Oc1ccc(cc1)C[C@@H]3N(C)CC2)N(C)CC4 [Compound 19, (+)‐obamegine] | 1.4 ± 0.35 µM | – | – | – | 2.61 ± 0.42 µM | 1.19 ± 0.16 µM | – | –
COc1cc2c3cc1Oc1c(OC)c(OC)cc4c1[C@@H](Cc1ccc(O)c(c1)Oc1ccc(cc1)C[C@@H]3N(C)CC2)N(C)CC4 [Compound 17, (+)‐berbamine] | 2.23 ± 0.49 µM | – | – | – | 2.56 ± 0.16 µM | 2.29 ± 0.29 µM | – | –
CC(C)C[C@H](NC(=O)[C@H]1O[C@@H]1C(=O)O)C(=O)NCCCCN=C(N)N [E‐64, reference compound] | – | 23.1 ± 1.3 µM | 22.7 ± 1.28 µM | 22.7 to 23.1 µM | – | – | 23.1 ± 0.63 µM | –
(±)‐Haemanthidine [Compound 1] | – | > 10 µM | – | – | – | – | > 10 µM | inactive at nontoxic concentration
COc1ccc2cc1Oc1ccc(cc1)C[C@H]1c3c(cc4c(c3Oc3cc5c(cc3OC)CCN(C)[C@@H]5C2)OCO4)CCN1C [Cepharantine, Cepharanthine, reference compound] | 0.48 ± 0.09 µM | – | – | – | 1.64 ± 0.18 µM | 1.31 ± 0.07 µM | – | –
